For the assay, the target named is T1, glucocerebrosidase (Gcase) (Homo sapiens, UniProt P04062).
T1 sequence (P04062 40-536): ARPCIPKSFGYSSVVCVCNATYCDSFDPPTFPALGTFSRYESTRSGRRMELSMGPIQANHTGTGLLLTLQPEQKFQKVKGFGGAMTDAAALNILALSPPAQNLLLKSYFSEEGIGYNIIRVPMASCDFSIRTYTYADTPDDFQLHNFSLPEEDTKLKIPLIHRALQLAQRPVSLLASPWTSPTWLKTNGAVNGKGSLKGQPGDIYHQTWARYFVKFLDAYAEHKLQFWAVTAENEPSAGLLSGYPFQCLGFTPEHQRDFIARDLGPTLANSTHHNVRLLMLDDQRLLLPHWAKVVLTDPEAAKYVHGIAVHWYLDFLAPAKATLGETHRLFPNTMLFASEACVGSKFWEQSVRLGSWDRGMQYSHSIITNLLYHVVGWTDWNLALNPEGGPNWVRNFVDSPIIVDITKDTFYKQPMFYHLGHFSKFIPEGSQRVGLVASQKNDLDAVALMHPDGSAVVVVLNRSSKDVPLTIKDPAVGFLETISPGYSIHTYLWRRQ
The assay can be described thus: Glucocerebrosidase (Gcase) activation assay, 4-methylumbelliferyl-beta-D-glucopyranoside substrate, with saposin C. The settings on record: 10 nM GCase, 100 nM saposin C, pH 4.7. Type of assay: biochemical. As to the method: The ability of exemplary compounds to activate glucocerebrosidase (Gcase) was measured.
A 484 μL aliquot of a 1.0 mg/mL solution of phosphatidylserine (PS) (Sigma P7769) in chloroform was evaporated under a stream of nitrogen for 1 hour. The lipid film was dissolved over 4 minutes of vigorous vortexing in 40 mL of 176 mM K2HPO4/50 mM citric acid (pH 4.7) containing 7.5 μL of triton X-100, resulting in a mixed micellar preparation with a composition of 0.32 mM triton and 0.37 mol % PS. 4-Methylumbelliferyl-beta-D-glucopyranoside (ACROS-337025000) was dissolved in the micellar solution to a final concentration of 2 mM for use as the reaction substrate.
Test compounds were diluted to the desired concentrations with dimethylsulfoxide (DMSO) from 10 mM stocks, and 0.41 μL of the DMSO compound mixture was added to 100 μL of micellar solution containing 10 nM GCase and 100 nM saposin C (Enzo ALX-201-262-C050). Pre-incubation was allowed to occur for 30 minutes at room temperature, after which the reaction was initiated by combining 25 μL of substrate solution with 25 μL of compound/GCase/saposin mixture. The reaction proceeded for 15 minutes at room temperature and was stopped by adding 150 μL of 1M glycine, pH 12.5. The endpoint of the reaction was monitored by measuring fluorescence intensity (excitation: 365 nm; emission: 440 nm) on a SpectraMax i3 instrument (Molecular Devices). Test compounds were screened at 1.0 and 0.1 μM final concentration, and subsequent 8-point dose response curves were obtained using 3-fold dilutions from a maximum final concentration of 5 μM.
For experiments in which the test compound was used at a concentration of 1.0 μM, the symbol “+” indicates less than 30% Gcase activation; the symbol “++” indicates Gcase activation in the range of 30% up to 60%; and the symbol “+++” indicates Gcase activation greater than 60%. For experiments in which the test compound was used at a concentration of 0.1 μM, the symbol “*” indicates less than 10% Gcase activation; the symbol “**” indicates Gcase activation in the range of 10% up to 20%; and the symbol “***” indicates greater than 20% Gcase activation.

Experimental findings from US11932645B2, “Substituted pyrazolo[1,5-a]pyrimidines and their use in the treatment of medical disorders” (Bial—R&D Investments, S.A., priority 2014, dated 2024) are described below.

Each structure is given as a SMILES string.

As to `C#Cc1ccc(NC(=O)c2cnn3c(C)cc(C)nc23)nc1` [III-1], the “Percent Gcase Activation 0.1 μM Test Compound” value was “* (less than 10% Gcase activation)” and the “Percent Gcase Activation 1 μM Test Compound” value is reported as “++ (Gcase activation in the range of 30% up to 60%)”.

`C#Cc1ccc(NC(=O)c2cnn3c(C)cc(C)nc23)cn1` [III-2]: the “Percent Gcase Activation 0.1 μM Test Compound” value is “* (less than 10% Gcase activation)” and the “Percent Gcase Activation 1 μM Test Compound” value is recorded as “+ (less than 30% Gcase activation)”.

With `Cc1cc(C)n2ncc(C(=O)Nc3ccc(-c4ccccc4)cc3)c2n1` [III-3], the “Percent Gcase Activation 0.1 μM Test Compound” value is on record as “*** (greater than 20% Gcase activation)” and the “Percent Gcase Activation 1 μM Test Compound” value is “++ (Gcase activation in the range of 30% up to 60%)”.

Regarding `COCC#Cc1ccc(NC(=O)c2cnn3c(C)cc(C)nc23)cc1` [III-4], the “Percent Gcase Activation 0.1 μM Test Compound” value is on record as “** (Gcase activation in the range of 10% up to 20%)” and the “Percent Gcase Activation 1 μM Test Compound” value is “+++ (Gcase activation greater than 60%)”.

For `Cc1cc(C)n2ncc(C(=O)Nc3ccc(Oc4ccccc4)cc3)c2n1` [III-5], the “Percent Gcase Activation 0.1 μM Test Compound” value is given as “*** (greater than 20% Gcase activation)” and the “Percent Gcase Activation 1 μM Test Compound” value is “++ (Gcase activation in the range of 30% up to 60%)”.

Consider `Cc1cc(C)n2ncc(C(=O)Nc3ccc(-n4ccnc4)cc3)c2n1` [III-6], for which the “Percent Gcase Activation 0.1 μM Test Compound” value is reported as “* (less than 10% Gcase activation)” and the “Percent Gcase Activation 1 μM Test Compound” value was “+ (less than 30% Gcase activation)”.

Turning to `Cc1cc(C)n2ncc(C(=O)Nc3ccc(-c4nccs4)cc3)c2n1` [III-7], the “Percent Gcase Activation 0.1 μM Test Compound” value is on record as “** (Gcase activation in the range of 10% up to 20%)” and the “Percent Gcase Activation 1 μM Test Compound” value is given as “+++ (Gcase activation greater than 60%)”.

Consider `C#Cc1ccc(NC(=O)c2cnn3c(C)cc(C)nc23)c(OC)c1` [III-8], for which the “Percent Gcase Activation 0.1 μM Test Compound” value was “** (Gcase activation in the range of 10% up to 20%)” and the “Percent Gcase Activation 1 μM Test Compound” value is “++ (Gcase activation in the range of 30% up to 60%)”.

Regarding `Cc1cc(C)n2ncc(C(=O)Nc3ccc(-c4ccon4)cc3)c2n1` [III-9], the “Percent Gcase Activation 0.1 μM Test Compound” value is “* (less than 10% Gcase activation)” and the “Percent Gcase Activation 1 μM Test Compound” value is on record as “+++ (Gcase activation greater than 60%)”.

As to `Cc1cc(C)n2ncc(C(=O)Nc3ccc(-c4cocn4)cc3)c2n1` [III-10], the “Percent Gcase Activation 0.1 μM Test Compound” value is “** (Gcase activation in the range of 10% up to 20%)” and the “Percent Gcase Activation 1 μM Test Compound” value is reported as “+++ (Gcase activation greater than 60%)”.

For the compound `Cc1cc(C)n2ncc(C(=O)Nc3ccc(-c4ncco4)cc3)c2n1` [III-11], the “Percent Gcase Activation 0.1 μM Test Compound” value was “** (Gcase activation in the range of 10% up to 20%)” and the “Percent Gcase Activation 1 μM Test Compound” value is given as “+++ (Gcase activation greater than 60%)”.

On to `Cc1cc(C)n2ncc(C(=O)Nc3cc(-c4ccccc4)on3)c2n1` [III-12], for which the “Percent Gcase Activation 0.1 μM Test Compound” value was “* (less than 10% Gcase activation)” and the “Percent Gcase Activation 1 μM Test Compound” value is recorded as “+ (less than 30% Gcase activation)”.

Turning to `C#CC1CCC(NC(=O)c2cnn3c(C)cc(C)nc23)CC1` (stereo not shown) [III-13], the “Percent Gcase Activation 0.1 μM Test Compound” value is on record as “* (less than 10% Gcase activation)” and the “Percent Gcase Activation 1 μM Test Compound” value was “+ (less than 30% Gcase activation)”.

With `C#C[C@H]1CC[C@H](NC(=O)c2cnn3c(C)cc(C)nc23)CC1` [III-14], the “Percent Gcase Activation 0.1 μM Test Compound” value is recorded as “* (less than 10% Gcase activation)” and the “Percent Gcase Activation 1 μM Test Compound” value is recorded as “+ (less than 30% Gcase activation)”.

In the case of `C#C[C@H]1CC[C@@H](NC(=O)c2cnn3c(C)cc(C)nc23)CC1` [III-15], the “Percent Gcase Activation 0.1 μM Test Compound” value is listed as “* (less than 10% Gcase activation)” and the “Percent Gcase Activation 1 μM Test Compound” value is on record as “+ (less than 30% Gcase activation)”.

For the compound `Cc1cc(C)n2ncc(C(=O)Nc3ccc(-c4cnsc4)cc3)c2n1` [III-16], the “Percent Gcase Activation 0.1 μM Test Compound” value is “** (Gcase activation in the range of 10% up to 20%)” and the “Percent Gcase Activation 1 μM Test Compound” value was “+++ (Gcase activation greater than 60%)”.

In the case of `Cc1cc(C)n2ncc(C(=O)Nc3ccc(-c4cnoc4)cc3)c2n1` [III-17], the “Percent Gcase Activation 0.1 μM Test Compound” value was “* (less than 10% Gcase activation)” and the “Percent Gcase Activation 1 μM Test Compound” value is listed as “+ (less than 30% Gcase activation)”.

As for `Cc1cc(C)n2ncc(C(=O)Nc3cc(C4(C(F)(F)F)CC4)on3)c2n1` [III-18], the “Percent Gcase Activation 0.1 μM Test Compound” value is reported as “* (less than 10% Gcase activation)” and the “Percent Gcase Activation 1 μM Test Compound” value is “+ (less than 30% Gcase activation)”.

For `Cc1cc(C)n2ncc(C(=O)Nc3ccc(-c4cocn4)nc3)c2n1` [III-19], the “Percent Gcase Activation 0.1 μM Test Compound” value is “* (less than 10% Gcase activation)” and the “Percent Gcase Activation 1 μM Test Compound” value is on record as “+ (less than 30% Gcase activation)”.

Turning to `Cc1cc(C)n2ncc(C(=O)Nc3ccc(-c4cccs4)nc3)c2n1` [III-20], the “Percent Gcase Activation 0.1 μM Test Compound” value is “*** (greater than 20% Gcase activation)” and the “Percent Gcase Activation 1 μM Test Compound” value is listed as “+++ (Gcase activation greater than 60%)”.

Consider `Cc1cc(C)n2ncc(C(=O)Nc3ccc(-c4ccncc4)nc3)c2n1` [III-21], for which the “Percent Gcase Activation 0.1 μM Test Compound” value is recorded as “* (less than 10% Gcase activation)” and the “Percent Gcase Activation 1 μM Test Compound” value is reported as “+ (less than 30% Gcase activation)”.

As for `Cc1cc(C)n2ncc(C(=O)Nc3ccc(-c4ccco4)nc3)c2n1` [III-22], the “Percent Gcase Activation 0.1 μM Test Compound” value was “* (less than 10% Gcase activation)” and the “Percent Gcase Activation 1 μM Test Compound” value is given as “++ (Gcase activation in the range of 30% up to 60%)”.

For `Cc1cc(C)n2ncc(C(=O)Nc3ccc(-c4cnn(C)c4)nc3)c2n1` [III-23], the “Percent Gcase Activation 0.1 μM Test Compound” value was “* (less than 10% Gcase activation)” and the “Percent Gcase Activation 1 μM Test Compound” value is “+ (less than 30% Gcase activation)”.

In the case of `Cc1cc(C)n2ncc(CNc3ccc(-c4cocn4)nc3)c2n1` [III-24], the “Percent Gcase Activation 0.1 μM Test Compound” value is reported as “* (less than 10% Gcase activation)” and the “Percent Gcase Activation 1 μM Test Compound” value was “+ (less than 30% Gcase activation)”.

`Cc1ccn2ncc(CNc3ccc(-c4cocn4)cc3)c2n1` [III-25]: the “Percent Gcase Activation 0.1 μM Test Compound” value is reported as “* (less than 10% Gcase activation)” and the “Percent Gcase Activation 1 μM Test Compound” value was “+ (less than 30% Gcase activation)”.

Consider `Cc1ccn2ncc(CNc3ccc(-c4ncco4)cc3)c2n1` [III-26], for which the “Percent Gcase Activation 0.1 μM Test Compound” value was “* (less than 10% Gcase activation)” and the “Percent Gcase Activation 1 μM Test Compound” value is on record as “+ (less than 30% Gcase activation)”.

In the case of `Cc1cc(C)n2ncc(C(=O)Nc3ccc(-c4cscn4)cc3)c2n1` [III-27], the “Percent Gcase Activation 0.1 μM Test Compound” value is recorded as “** (Gcase activation in the range of 10% up to 20%)” and the “Percent Gcase Activation 1 μM Test Compound” value is “+++ (Gcase activation greater than 60%)”.

As for `Cc1cc(C)n2ncc(C(=O)Nc3nc4ccccc4[nH]3)c2n1` [III-28], the “Percent Gcase Activation 0.1 μM Test Compound” value was “* (less than 10% Gcase activation)” and the “Percent Gcase Activation 1 μM Test Compound” value is reported as “+ (less than 30% Gcase activation)”.

Turning to `COCC#Cc1ccc(NCc2cnn3c(C)cc(C)nc23)cc1` [III-29], the “Percent Gcase Activation 0.1 μM Test Compound” value is listed as “* (less than 10% Gcase activation)” and the “Percent Gcase Activation 1 μM Test Compound” value is recorded as “+ (less than 30% Gcase activation)”.

As to `Cc1cc(C)n2ncc(C(=O)Nc3ccc(-c4ncc[nH]4)cc3)c2n1` [III-30], the “Percent Gcase Activation 0.1 μM Test Compound” value is recorded as “* (less than 10% Gcase activation)” and the “Percent Gcase Activation 1 μM Test Compound” value is “+ (less than 30% Gcase activation)”.

`Cc1cc(C)n2ncc(C(=O)Nc3ccc(-c4cc[nH]n4)cc3)c2n1` [III-31]: the “Percent Gcase Activation 0.1 μM Test Compound” value was “* (less than 10% Gcase activation)” and the “Percent Gcase Activation 1 μM Test Compound” value is listed as “+ (less than 30% Gcase activation)”.

Turning to `CCCCCOc1ccc(NC(=O)c2cnn3c(C)cc(C)nc23)cc1` [III-32], the “Percent Gcase Activation 0.1 μM Test Compound” value is “** (Gcase activation in the range of 10% up to 20%)” and the “Percent Gcase Activation 1 μM Test Compound” value is on record as “+++ (Gcase activation greater than 60%)”.
